Results reported in US20040224981A1, “Antibacterial methods and compositions” (priority 2003, published 2004).
Values after ≈ are worked out from the molar mass of the structure shown. Where two headings read alike, the source gives them in different places.

What was measured:
[1] = system: S. pyogenes; test: Development of resistance following serial passage, S. pyogenes; assay type: cell-based; conditions: Streptococcus pyogenes
Protocol: (§1) MRSi compound 5 (acetate salt), mupirocin and MRSi compound 5/mupirocin 1:1 combination were tested for development of resistance following serial passage using 19 isolates, including S. aureus, coagulase-negative staphylococci and S. pyogenes strains.

[2] = system: S. epidermidis; test: Development of resistance following serial passage, S. epidermidis; assay type: cell-based; conditions: Staphylococcus epidermidis
Protocol: as §1

[3] = system: S. hemolyticus; test: Development of resistance following serial passage, S. hemolyticus; assay type: cell-based
Protocol: as §1

[4] = system: E. faecalis; test: MIC against E. faecalis; assay type: cell-based; conditions: for Range (MIC): in µg/mL; for MIC: Enterococcus faecalis, read-out: MIC
[5] = system: S. aureus; test: Development of resistance following serial passage, S. aureus; assay type: cell-based; conditions: Staphylococcus aureus
Protocol: as §1

[6] = system: S. aureus RN4220 (pYH4-MRS); test: Mode of action: MIC with MRS over-production; assay type: cell-based; conditions: S. aureus RN4220 (pYH4-MRS), +aTC (MRS over-expression)
Protocol: The strain expresses high levels of MRS upon the addition of 0.01 μg/mL of anyhdrotetracycline.

[7] = system: S. aureus ATCC 29213 and 31-1334; test: Selection of spontaneous resistant mutants (mutation frequency); assay type: cell-based, Staphylococcus aureus
Protocol: Approximately, 10^9 bacteria were plated onto Mueller-Hinton agar supplemented with 10% horse blood and containing various concentrations of the test compounds alone and in combination. After 24 and 48 hours of incubation at 35° C., the bacterial colonies were counted and the frequencies of mutation were determined relative to the total viable count of organisms that were plated. Resistant clones were re-plated once on plates containing the same concentration of agent that was used for the selection.

[8] = system: mupirocin-resistant S. aureus; conditions: cited from earlier work
[9] = ATCC29212, Table 4, E. faecalis ATCC 29212
[10] = recent clinical isolates of E. faecalis, ALL (28)

SMILES: C=C(F)c1sc(CNCCCNc2cc(=O)c3ccccc3[nH]2)c(C)c1Br [MRSi Cmpd 5 acetate, N-(4-bromo-5-(1-fluorovinyl)-3-methylthiophen-2-ylmethyl)-N′-(1H-quinolin-4-one)propane-1,3-diamine]
- MIC ([1]; ATCC19615, read-out: Final MIC after 20 passages): 1 µg/mL
- MIC ([1]; read-out: Final MIC after 20 passages): 1 µg/mL
- MIC ([2]; NRS8, read-out: Initial MIC, S. epidermidis NRS8 (LL-MupR)): 0.06 µg/mL
- MIC ([2]; read-out: Final MIC after 20 passages, S. epidermidis 936528 (HL-MupR)): 0.5 µg/mL
- MIC ([2]; read-out: Final MIC after 20 passages, S. epidermidis 936606 (Oxa-R)): 16 µg/mL
- MIC ([2]; read-out: Initial MIC, S. epidermidis 936528 (HL-MupR)): 0.03 µg/mL
- MIC ([2]; read-out: Initial MIC, S. epidermidis 936606 (Oxa-R)): 0.06 µg/mL
- MIC ([3]; NRS116, read-out: Final MIC after 20 passages): 16 µg/mL
- MIC ([3]; NRS116, read-out: Initial MIC): 0.12 µg/mL
- MIC50 ([4]; E. faecalis, Van-R(11)): < 0.004 µg/mL
- MIC90 ([4]; E. faecalis, Van-R(11)): 0.015 µg/mL
- Mode (MIC) ([4]; E. faecalis, Van-R(11)): < 0.004 µg/mL
- Range (MIC) ([4]; E. faecalis, Van-R(11)): <0.004-0.015
- MIC50 ([4]; E. faecalis, Van-S (16)): ≦0.004
- MIC90 ([4]; E. faecalis, Van-S (16)): 0.008 µg/mL
- Mode (MIC) ([4]; E. faecalis, Van-S (16)): ≦0.004
- Range (MIC) ([4]; E. faecalis, Van-S (16)): <0.004-0.015
- MIC [4, 9]: 0.015 µg/mL
- MIC ([4]; Table 4, E. faecalis 1): 0.004 µg/mL
- MIC ([4]; Table 4, E. faecalis 7): 0.015 µg/mL
- MIC50 [4, 10]: < 0.004 µg/mL
- MIC90 [4, 10]: 0.015 µg/mL
- Mode (MIC) [4, 10]: < 0.004 µg/mL
- Range (MIC) [4, 10]: <0.004-0.015
- MIC ([5]; ATCC29213, read-out: Final MIC after 20 passages, S. aureus ATCC 29213): 4 µg/mL
- MIC ([5]; ATCC29213, read-out: Initial MIC, S. aureus ATCC 29213): 0.06 µg/mL
- MIC ([5]; ATCC43300, read-out: Final MIC after 20 passages, S. aureus ATCC 43300 (ORSA)): 1 µg/mL
- MIC ([5]; ATCC43300, read-out: Initial MIC, S. aureus ATCC 43300 (ORSA)): 0.06 µg/mL
- MIC ([5]; NRS103, read-out: Final MIC after 20 passages, S. aureus NRS103 (ORSA)): 1 µg/mL
- MIC ([5]; NRS103, read-out: Initial MIC, S. aureus NRS103 (ORSA)): 0.12 µg/mL
- MIC ([5]; NRS107, read-out: Final MIC after 20 passages, S. aureus NRS107 (HL-MupR)): 0.5 µg/mL
- MIC ([5]; NRS107, read-out: Initial MIC, S. aureus NRS107 (HL-MupR)): 0.015 µg/mL
- MIC ([5]; read-out: Final MIC after 20 passages, S. aureus 10-420 (HL-MupR)): 8 µg/mL
- MIC ([5]; read-out: Final MIC after 20 passages, S. aureus 25-670 (HL-MupR)): 8 µg/mL
- MIC ([5]; read-out: Final MIC after 20 passages, S. aureus 31-1334 (LL-MupR)): 8 µg/mL
- MIC ([5]; read-out: Final MIC after 20 passages, S. aureus 87-2797 (HL-MupR)): 16 µg/mL
- MIC ([5]; read-out: Final MIC after 20 passages, S. aureus 1079077 (ORSA)): 16 µg/mL
- MIC ([5]; read-out: Final MIC after 20 passages, S. aureus 1079101 (HL-MupR)): 16 µg/mL
- MIC ([5]; read-out: Final MIC after 20 passages, S. aureus LZ6 (HL-MupR)): 2 µg/mL
- MIC ([5]; read-out: Initial MIC, S. aureus 1079077 (ORSA)): 0.25 µg/mL

SMILES: C/C(=C\C(=O)OCCCCCCCCC(=O)O)C[C@@H]1OC[C@H](C[C@@H]2O[C@H]2[C@@H](C)[C@H](C)O)[C@@H](O)[C@H]1O [Mupirocin, Pseudomonic acid A]
- MIC [6]: 0.06 µg/mL (≈ 0.12 µM)
- Mutation Frequency (48 hours) ([7]; S. aureus 31-1334 (low level mupirocin-resistant), selecting concentration 2 x MIC): 1.8 × 10^−8
- Mutation Frequency (48 hours) ([7]; S. aureus 31-1334 (low level mupirocin-resistant), selecting concentration 4 x MIC): 2 × 10^−9
- Mutation Frequency (48 hours) ([7]; S. aureus 31-1334 (low level mupirocin-resistant), selecting concentration 8 x MIC): <1 × 10^−9
- Mutation Frequency (48 hours) ([7]; S. aureus ATCC 29213 (mupirocin susceptible), selecting concentration 2 x MIC): 1.25 × 10^−7
- Mutation Frequency (48 hours) ([7]; S. aureus ATCC 29213 (mupirocin susceptible), selecting concentration 4 x MIC): 1.01 × 10^−7
- Mutation Frequency (48 hours) ([7]; S. aureus ATCC 29213 (mupirocin susceptible), selecting concentration 8 x MIC): 2.57 × 10^−8
- MICs, high level resistance (mupA) ([8]; high level mupirocin resistance, plasmid-encoded IRS enzyme): > 512 µg/mL
- MIC's, low level resistance ([8]; low level mupirocin resistance (mutations in chromosomal isoleucyl tRNA synthetase)): 8 to 256 µg/mL
- MIC50 ([4]; E. faecalis, Van-R(11)): > 8 µg/mL
- MIC90 ([4]; E. faecalis, Van-R(11)): > 8 µg/mL
- Mode (MIC) ([4]; E. faecalis, Van-R(11)): > 8 µg/mL
- MIC50 ([4]; E. faecalis, Van-S (16)): > 8 µg/mL
- MIC90 ([4]; E. faecalis, Van-S (16)): > 8 µg/mL
- Mode (MIC) ([4]; E. faecalis, Van-S (16)): > 8 µg/mL
- MIC ([4]; ATCC29212, Table 2, E. faecalis ATCC 29212): 8 µg/mL
- MIC ([4]; ATCC29212, Table 3, E. faecalis ATCC 29212): 8 µg/mL
- MIC [4, 9]: > 8 µg/mL
- MIC ([4]; ATCC 51299 / VRE, Table 8, E. faecalis ATCC 51299 (VRE)): 32 µg/mL
- MIC ([4]; Table 2, E. faecalis 1): 8 µg/mL
- MIC ([4]; Table 2, E. faecalis 7): 8 µg/mL
- MIC ([4]; Table 3, E. faecalis 1): 8 µg/mL
- MIC ([4]; Table 3, E. faecalis 7): 8 µg/mL
- MIC ([4]; Table 4, E. faecalis 1): > 8 µg/mL
- MIC ([4]; Table 4, E. faecalis 7): > 8 µg/mL
- MIC ([4]; Table 8, E. faecalis 1): 32 µg/mL
- MIC ([4]; Table 8, E. faecalis 7): 64 µg/mL
- MIC50 [4, 10]: > 8 µg/mL
- MIC90 [4, 10]: > 8 µg/mL
- Mode (MIC) [4, 10]: > 8 µg/mL
